# Measured values taken from US20130331427A1, “METHODS OF STIMULATING CELLULAR GROWTH, SYNAPTIC, REMODELING AND CONSOLIDATION OF LONG-TERM MEMORY” (Blanchette Rockefeller Neuroscience Institute, priority 2007, published 2013).
# Columns and labels:
# PKC [1] = test: PKC activity in cultured rat hippocampal H19-7/IGF-IR cells; type: cell-based
# Description: (§1) Cells were homogenized by sonication (5 sec, 25 W) in 100 μl of 100 mM Tris-HCL pH 7.4 buffer containing 1 mM EGTA, 1 mM PMSF, and 50 mM NaF. Homogenate was transferred to a polyallomer centrifuge tube and was centrifuged at 100,000×g for 10 min at 4°. The supernatant was removed and immediately frozen on dry ice. The particulate fraction was resuspended by sonication in 100 μl of the same buffer and stored at −80°. To measure PKC, 10 μl of cytosol or particulate fraction was incubated for 15 min at 37° in the presence of 10 μM histones, 4.89 mM CaCl2, 1.2 μg/μl phosphatidyl-L-serine, 0.18 μg/μl 1.2-dioctanoyl-sn-glycerol, 10 mM MgCl2, 20 mM HEPES (pH 7.4), 0-8 mM EDTA, 4 mM EGTA, 4% glycerol, 8 μg/ml aprotinin, 8 μg/ml leupeptin, and 2 mM benzamidine. 0.5 μCi [γ^32-P]ATP was added and ^32P-phosphoprotein formation was measured by adsorption onto phosphocellulose as described previously (25). This assay was used with slight adjustments for either Hermissenda nervous system homogenates or cultured mammalian neuron homogenates.
# Rat hippocampal H19-7/IGF-IR cells (ATCC) were plated onto poly-L-lysine coated plates and grown at 35° in DMEM/10% FCS for several days until approx. 50% coverage was obtained. The cells were then induced to differentiate into a neuronal phenotype by replacing the medium with 5 ml N2 medium containing 10 ng/ml basic fibroblast growth factor and grown in T-25 flasks at 39° C. (26). […] After a specified interval, the medium was removed and the cells were washed with PBS, removed by gentle scraping, and collected by centrifugation at 1000 rpm for 5 min.
# These differentiate to have a neuronal phenotype when induced by basic fibroblast growth factor in N2 medium (26) and express a normal complement of neuronal proteins, including PKC.
# Both the initial PKC activation and subsequent downregulation have been previously described and were confirmed by measurement of PKC activity in membrane and cytosol.
# rats = test: rat spatial (water) maze learning and memory; type: in vivo
# PKC [2] = test: PKC activity (histone phosphorylation) in Hermissenda nervous systems; type: in vivo
# Description: as §1
# Histone phosphorylation (See “Methods”) in isolated circumesophageal nervous systems was then measured in the cytosol fraction. […] (FIG. 12, 13).
# PKCδ = target: T1, PKCδ (Rattus norvegicus, UniProt P09215); test: acute hippocampal slices, PKCδ activation; type: cell-based
# T1 construct: from tissue; host or cells: hippocampal slices
# T1 sequence (P09215 whole entry): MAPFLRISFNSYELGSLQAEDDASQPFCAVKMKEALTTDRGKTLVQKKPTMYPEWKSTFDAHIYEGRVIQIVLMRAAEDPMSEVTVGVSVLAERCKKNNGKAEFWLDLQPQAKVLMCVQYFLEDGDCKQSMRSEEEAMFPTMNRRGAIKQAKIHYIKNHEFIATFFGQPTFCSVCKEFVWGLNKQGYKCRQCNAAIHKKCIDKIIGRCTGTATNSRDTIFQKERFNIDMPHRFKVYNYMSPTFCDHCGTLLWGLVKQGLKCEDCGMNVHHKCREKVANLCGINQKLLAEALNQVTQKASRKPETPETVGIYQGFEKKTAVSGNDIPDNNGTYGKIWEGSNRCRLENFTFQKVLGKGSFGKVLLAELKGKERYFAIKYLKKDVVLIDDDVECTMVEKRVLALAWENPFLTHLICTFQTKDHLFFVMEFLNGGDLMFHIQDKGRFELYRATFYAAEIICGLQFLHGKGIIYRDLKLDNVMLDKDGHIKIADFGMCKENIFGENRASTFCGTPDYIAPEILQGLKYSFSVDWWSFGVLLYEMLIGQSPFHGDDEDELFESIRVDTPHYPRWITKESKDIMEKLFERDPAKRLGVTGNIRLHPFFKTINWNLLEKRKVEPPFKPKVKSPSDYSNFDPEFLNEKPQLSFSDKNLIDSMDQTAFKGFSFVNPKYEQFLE
# calexcitin = calexcitin immunostaining in Hermissenda B-photoreceptors; type: in vivo
# Description: Following experimental treatments and testing, animals were rapidly decapitated, the central nervous systems (CNS) removed and then fixed in 4% para-formaldehyde in 20 mM Tris-buffered (pH 8) natural seawater (NSW; 0.2 μm micropore-filtered). The CNSs were then embedded in polyester wax (20), sectioned (6 μm) and immunostained using a biotinylated secondary antibody coupled to avidin-bound microperoxidase (ABC method, Vector), Aminoethylcarbazole (AEC) was used as the chromogen. The primary polyclonal antibody (designated 25U2) was raised in rabbits from the full length calexcitin protein extracted from squid optic lobes. Gray-scale intensity measures were done from digital photomicrographs on circumscribed cytoplasmic areas of the B-photoreceptors minus the same background area (non-staining neuropile).
# Micrographs (A, B) depict representative tissue sections from Hermissenda eyes that were immunolabeled with the calexcitin polyclonal antibody, 25U2. […] Differences in staining intensities were measured and recorded as gray-scale intensities (0-256; B-cell cytoplasm minus tissue background).
# sAPP secretion = sAPP secretion with bryostatin-1; type: cell-based; conditions: 0.1 nM
# Description: Of particular interest are macrocyclic lactones (i.e. bryostatin class and neristatin class) that act to stimulate PKC. […] Bryostatin is currently in clinical trials as an anti-cancer agent. The bryostatins are known to bind to the regulatory domain of PKC and to activate the enzyme. […] (See, for example, WO 97/43268; incorporated herein by reference in its entirety).
# PKC [3] = conditions: cited from earlier work
# dendritic spines = dendritic spines of rats trained in a spatial maze task; type: in vivo, rat
# Description: On retention day 2, confocal microscopy and […] were used to study filopodia and dendritic spines: mushroom, thin and stubby spines (Panel A).
# presynaptic markers = test: pre- and postsynaptic markers, quantitative confocal immunohistochemistry; type: in vivo, rat; conditions: bryostatin alone
# Description: Water maze training increased the numbers of the dendritic spine marker spinophilin (FIG. 29; Panel B), postsynaptic membrane marker neurogranin (FIG. 29; Panels A and D), and presynaptic marker GAP-43 (Panels A and E), but not the axon bouton marker synaptophysin (FIG. 29; Panels A and B), as determined by quantitative confocal immunohistochemistry.
# ELAV = test: acute hippocampal slices, nuclear export of ELAV; type: cell-based; conditions: 120-min incubation
# CA1 neurons = test: acute hippocampal slices, number of dendritic spines (spinophilin); type: cell-based; conditions: 0.1 nM, spine marker spinophilin
# [4] = single dose 0.28 nM for 30 minutes
smiles,measurement,setting,value
"CCC/C=C/C=C/C(=O)O[C@H]1/C(=C/C(=O)OC)C[C@H]2C[C@H]([C@@H](C)O)OC(=O)C[C@H](O)C[C@@H]3C[C@H](OC(C)=O)C(C)(C)[C@](O)(C[C@@H]4C/C(=C/C(=O)OC)C[C@H](/C=C/C(C)(C)[C@]1(O)O2)O4)O3 [bryostatin, bryostatin-1]","PKC activity, cytoplasmic fraction",PKC [1]; exposed twice within a 2-hour period,significant reduction
same,membrane-bound PKC downregulation,PKC [1]; second 30-minute exposure after a 2- to 4-hour delay,eliminated the significant downregulation
same,"PKC activity, cytoplasmic fraction",PKC [1]; second exposure 4 hours after the first,increased above baseline
same,membrane-bound PKC after the brief translocation,PKC [1]; [4],prolonged downregulation
same,translocation of PKC from the cytosol to the particulate fraction,PKC [1]; [4],approx 60%
same,"PKC activity, cytoplasmic fraction",PKC [1]; within the first 4 hours after exposure,no significant alteration
same,latency to reach the platform,"rats; 10 μg/kg i.p. 20 min before training on day 1, 3, 5, vs. controls",greatly reduced
same,number of target crossings,rats; retention Day 1,similarly enhanced
same,time to reach the target quadrant,"rats; retention day 1, 24 hours after all training",reduced
same,"PKC activity, cytosol fraction","PKC [2]; 0.28 nM, 4 hour exposures, 10 minutes and 24 hours after the second of two exposures",significantly increased over baseline levels
same,"PKC activity, membrane fraction",PKC [2]; 24 hours after the second of two exposures,significantly increased over baseline
same,activation of PKCδ,PKCδ,but not PKCδ
same,CE immunostaining,"calexcitin; bryostatin alone, 24 hours after 1 exposure for four hours",not elevated
same,CE immunostaining,"calexcitin; bryostatin alone, 24 hours after 2 exposures on two successive days",greater residual CE immunostaining
same,CE immunostaining,calexcitin; bryostatin plus 6 TE,comparable to that observed after 9 TE
same,increase of calexcitin levels,"calexcitin; paired training (6PTE), bryostatin 0.25",greater than 4.3 ×
same,rise in CE (calexcitin),"calexcitin; random training (4RTE), bryostatin 0.25",2.0
same,calexcitin level,"calexcitin; two exposures on successive days 0.25 ng/ml, 2-paired TEs, vs 9-random TEs",significantly increased
same,sAPP secretion,sAPP secretion,dramatic increase of sAPP secretion
same,concentrations that activate PKC,PKC [3],sub-nanomolar
same,filopodia or thin spines,dendritic spines; all conditions,no changes
same,number of stubby spines,dendritic spines; bryostatin alone (without training),augmented
same,total numbers of filopodia and (all shape) spines,dendritic spines; only bryostatin,similarly increased
same,water-maze-induced increase in number of mushroom spines,"dendritic spines; retention day 2, training plus bryostatin",enhanced
same,increase in total numbers of filopodia and spines,dendritic spines; water maze rats also treated with bryostatin,enhanced
same,number of presynaptic markers,presynaptic markers,increased
same,ELAV transport,ELAV,significantly transported to dendrites
same,number of dendritic spines,CA1 neurons,augmented
same,number of dendritic spines,CA1 neurons; listed as Bryostatin,increased
